From patent US6529835B1, “High throughput methods, systems and apparatus for performing cell based screening assays” (Caliper Technologies Corp., priority 1998, dated 2003)

How the values were obtained:
[1] = tested on: P2Y receptor on THP-1 cells; experiment: Dual label cell function assay, calcium response of THP-1 cells to UTP (Fluo-3 / Syto-17, on-chip); type: cell-based
Method: (§1) Cell Culture—Cells (CHO or THP-1) were obtained from the ATCC. THP-1 cells were cultured in RPMI 1640 media containing 10% fetal bovine serum (FBS), sodium pyruvate (1 mM), L-glutamine (2 mM), Penicillin-G/Streptomycin (100 u/ml, 100 μ/ml), beta-mercaptoethanol (50 μM), HEPES buffer, pH 7.4 (10 mM). CHO cells were cultured in Ham's F12 media containing 10% FBS, L-glutamine (2 mM), and Penicillin-G/Streptomycin (100 u/ml/100 μg/ml). The cells were maintained by splitting every 3-4 days.
(§2) Dye Loading of Cells—The cells were loaded with Fluo-3-AM dye (Molecular Probes) using a 4 μM solution of the dye in Hank's Balanced Salt Solution (HBSS) containing calcium and magnesium but lacking phenol red. Added to the HBSS were 1% FBS, 2.5 mM probenecid, 30 mM HEPES, pH 7.0, and 0.05% pluronic acid. The cells were incubated in the dye containing solution at approximately, 5-9×10^6 cells/5 ml for 50 minutes in a CO2 incubator at 37° C. […]
(§3) The fluorescence of the cells was measured using two PMT's on a Nikon inverted microscope and fluorescein/texas red filter sets (Fluo-3: Ex. max=506, Em. max=526 & Syto-17: Ex. max=621, Em. max=634 nm) for two color analysis. Using the combination of Fluo-3 and Syto-17 dyes, there was no interference by fluorescence quenching of one dye's emission by the other dye. […] Syto-17 was therefore an indicator of cell density in the reading area. […]

[2] = tested on: CHO cells; experiment: Dual label cell function assay, intracellular calcium in CHO cells (Fluo-3 / Syto-17, on-chip); type: cell-based; details: ionomycin 0, 1 μM, 3 μM, 10 μM and 30 μM, FIGS. 11A-11F
Method: as §1, §2, §3

O=c1ccn([C@@H]2O[C@H](COP(=O)(O)OP(=O)(O)OP(=O)(O)O)[C@@H](O)[C@H]2O)c(=O)[nH]1 [UTP]
time to peak of calcium response after sample introduction ([1]; 10 μM UTP, FIG. 15): ≤ 5 s
ratio of the Fluo-3 and Syto-17 fluorescence (the slope determined by linear regression) ([1]; 30 μM UTP versus no UTP, FIG. 13): changes with treatment with UTP

C[C@H](CCC(=O)O)C[C@H](C)C[C@H](C)C(=O)/C=C(\O)[C@H](C)C[C@H](C)C/C=C/[C@@H](C)[C@@H](O)[C@@H](C)[C@@H](O)C[C@@H]1CC[C@@](C)([C@H]2CC[C@@](C)([C@@H](C)O)O2)O1 [ionomycin]
slope of the best fit line for the scatter plots (ratio of calcium modulated fluorescence to cell number; measure of intracellular calcium concentration) [2]: increases with increasing ionomycin concentration
